The supplement of paper PMC12463676, “Small-molecule dissolution of stress granules by redox modulation benefits ALS models” (Nature Chemical Biology, 2025)

What was measured:
[1] = compound: NC(=O)CCCCC1CCSS1 [lipoamide]; assay: thermal stability z-score vs DMSO; higher = more thermally stabilized by treatment; conditions: HeLa, lipoamide concentration 100 µM
Protocol: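 Cellular thermal proteome profiling in HeLa cells. Cells were treated with 100 µM lipoamide for 1 h, with or without 1 mM arsenate for a further 1 h, then heated to ten temperatures (37-66.3 °C), and soluble protein was quantified by TMT mass spectrometry relative to 0.1% DMSO controls. The thermal stability score (sum of log2 fold changes minus the abundance score) was transformed to a z-score; mean of n = 3 experiments.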

[2] = compound: O=[As]([O-])(O)O.[K+] [potassium arsenate]; assay: as above; conditions: HeLa; arsenate concentration 1 mM
Protocol: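 Cellular thermal proteome profiling in HeLa cells treated with 1 mM arsenate for 1 h (DMSO pretreatment), heated to ten temperatures (37-66.3 °C). Soluble protein was quantified by TMT mass spectrometry relative to DMSO controls; the thermal stability score was transformed to a z-score; mean of n = 3 experiments.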

[3] = arsenate co-treatment: 1 mM arsenate 1 h
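Also: each temperature applied for 3 min, abundance score taken as mean log2 fold change at the two lowest temperatures, z-score obtained by mean subtraction and division by SD.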

Sequence of UniProt P62253 (P62253 whole entry): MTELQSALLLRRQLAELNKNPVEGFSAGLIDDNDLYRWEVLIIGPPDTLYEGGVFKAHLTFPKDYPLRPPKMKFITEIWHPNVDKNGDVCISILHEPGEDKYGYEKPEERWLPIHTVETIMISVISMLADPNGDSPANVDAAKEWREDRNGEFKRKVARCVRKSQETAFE
Sequence of UniProt P49459 (P49459 whole entry): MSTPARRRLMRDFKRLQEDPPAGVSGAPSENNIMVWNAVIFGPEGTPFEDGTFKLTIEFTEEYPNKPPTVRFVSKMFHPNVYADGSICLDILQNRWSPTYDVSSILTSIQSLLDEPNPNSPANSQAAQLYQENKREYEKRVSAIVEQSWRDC
Sequence of UniProt Q969T4 (Q969T4 whole entry): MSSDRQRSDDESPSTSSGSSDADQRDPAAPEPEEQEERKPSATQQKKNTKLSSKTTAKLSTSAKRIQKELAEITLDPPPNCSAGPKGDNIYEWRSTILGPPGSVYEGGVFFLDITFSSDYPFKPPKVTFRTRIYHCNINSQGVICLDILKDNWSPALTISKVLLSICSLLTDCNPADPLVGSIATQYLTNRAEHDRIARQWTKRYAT
Sequence of UniProt P60604 (P60604 whole entry): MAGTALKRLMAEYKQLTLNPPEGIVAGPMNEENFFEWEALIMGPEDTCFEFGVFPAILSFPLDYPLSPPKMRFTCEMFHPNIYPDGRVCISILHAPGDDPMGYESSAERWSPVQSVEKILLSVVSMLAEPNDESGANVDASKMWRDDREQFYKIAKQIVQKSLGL
Sequence of UniProt Q15819 (Q15819 whole entry): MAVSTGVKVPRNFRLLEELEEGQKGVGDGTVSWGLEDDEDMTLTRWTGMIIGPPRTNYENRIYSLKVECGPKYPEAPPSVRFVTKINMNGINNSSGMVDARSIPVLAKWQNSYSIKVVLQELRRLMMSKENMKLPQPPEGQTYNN
Sequence of UniProt Q5T6F2 (Q5T6F2 whole entry): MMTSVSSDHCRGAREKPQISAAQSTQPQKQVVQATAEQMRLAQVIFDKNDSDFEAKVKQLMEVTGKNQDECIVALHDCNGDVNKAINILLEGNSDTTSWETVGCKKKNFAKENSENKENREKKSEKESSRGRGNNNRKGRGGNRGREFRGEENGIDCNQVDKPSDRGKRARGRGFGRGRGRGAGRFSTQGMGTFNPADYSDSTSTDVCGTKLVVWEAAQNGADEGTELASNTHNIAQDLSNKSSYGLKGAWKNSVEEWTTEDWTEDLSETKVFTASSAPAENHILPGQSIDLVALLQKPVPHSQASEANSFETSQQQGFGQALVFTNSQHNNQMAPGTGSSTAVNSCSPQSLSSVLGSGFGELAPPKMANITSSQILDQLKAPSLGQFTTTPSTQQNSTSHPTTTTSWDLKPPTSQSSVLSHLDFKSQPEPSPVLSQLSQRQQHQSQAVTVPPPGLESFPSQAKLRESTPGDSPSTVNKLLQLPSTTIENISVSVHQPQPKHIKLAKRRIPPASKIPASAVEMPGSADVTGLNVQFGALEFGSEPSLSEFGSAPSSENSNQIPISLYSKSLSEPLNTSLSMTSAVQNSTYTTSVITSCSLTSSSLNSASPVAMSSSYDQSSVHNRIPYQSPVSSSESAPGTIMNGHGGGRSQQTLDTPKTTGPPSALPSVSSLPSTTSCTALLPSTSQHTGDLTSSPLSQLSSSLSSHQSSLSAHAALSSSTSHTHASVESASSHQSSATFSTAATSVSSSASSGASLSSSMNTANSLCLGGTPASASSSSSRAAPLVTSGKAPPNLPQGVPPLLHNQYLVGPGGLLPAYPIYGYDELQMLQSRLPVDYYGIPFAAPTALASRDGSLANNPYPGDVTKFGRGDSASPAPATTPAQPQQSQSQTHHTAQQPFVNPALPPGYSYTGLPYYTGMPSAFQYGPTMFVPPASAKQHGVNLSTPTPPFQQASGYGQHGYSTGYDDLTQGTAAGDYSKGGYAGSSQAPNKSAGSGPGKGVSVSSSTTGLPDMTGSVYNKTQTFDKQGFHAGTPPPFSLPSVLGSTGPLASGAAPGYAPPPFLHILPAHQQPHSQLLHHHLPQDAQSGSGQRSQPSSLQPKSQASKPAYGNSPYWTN
Sequence of UniProt P68036 (P68036 whole entry): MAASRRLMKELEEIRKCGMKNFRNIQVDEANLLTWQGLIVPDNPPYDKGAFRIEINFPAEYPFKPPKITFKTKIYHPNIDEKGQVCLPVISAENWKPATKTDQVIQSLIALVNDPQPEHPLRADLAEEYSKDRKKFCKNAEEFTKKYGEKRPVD
Sequence of UniProt P61088 (P61088 whole entry): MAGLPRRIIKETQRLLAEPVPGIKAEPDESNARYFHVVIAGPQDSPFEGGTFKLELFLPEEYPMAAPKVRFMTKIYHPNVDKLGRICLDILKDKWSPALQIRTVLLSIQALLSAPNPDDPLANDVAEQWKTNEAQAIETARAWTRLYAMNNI
Sequence of UniProt Q9BSL1 (Q9BSL1 whole entry): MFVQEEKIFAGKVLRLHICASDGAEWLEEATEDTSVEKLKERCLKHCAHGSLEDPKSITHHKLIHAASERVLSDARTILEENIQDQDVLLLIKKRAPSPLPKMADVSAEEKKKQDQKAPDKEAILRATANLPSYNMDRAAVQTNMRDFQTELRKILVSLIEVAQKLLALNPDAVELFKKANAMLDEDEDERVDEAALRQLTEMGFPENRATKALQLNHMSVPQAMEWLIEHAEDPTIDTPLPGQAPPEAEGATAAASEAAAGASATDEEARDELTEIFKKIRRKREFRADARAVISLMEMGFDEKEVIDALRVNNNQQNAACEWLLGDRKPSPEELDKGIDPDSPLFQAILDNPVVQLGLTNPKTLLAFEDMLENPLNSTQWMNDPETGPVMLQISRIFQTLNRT
Sequence of UniProt Q9NPD8 (Q9NPD8 whole entry): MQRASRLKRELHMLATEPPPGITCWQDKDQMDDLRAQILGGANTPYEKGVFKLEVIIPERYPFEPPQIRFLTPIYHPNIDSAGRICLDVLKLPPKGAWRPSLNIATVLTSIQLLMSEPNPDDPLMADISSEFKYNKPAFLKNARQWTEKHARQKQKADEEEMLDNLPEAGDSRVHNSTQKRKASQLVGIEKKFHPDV
Sequence of UniProt P63279 (P63279 whole entry): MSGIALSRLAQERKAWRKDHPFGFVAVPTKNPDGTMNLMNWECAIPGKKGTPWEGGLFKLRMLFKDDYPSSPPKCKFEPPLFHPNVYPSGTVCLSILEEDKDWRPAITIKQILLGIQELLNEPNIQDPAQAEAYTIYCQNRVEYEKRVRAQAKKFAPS
Sequence of UniProt P62256 (P62256 whole entry): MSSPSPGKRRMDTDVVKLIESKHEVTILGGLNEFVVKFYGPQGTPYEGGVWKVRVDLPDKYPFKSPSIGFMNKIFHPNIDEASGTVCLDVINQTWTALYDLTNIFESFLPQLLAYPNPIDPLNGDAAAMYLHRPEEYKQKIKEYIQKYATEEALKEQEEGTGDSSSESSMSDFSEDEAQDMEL
Sequence of UniProt Q9H832 (Q9H832 whole entry): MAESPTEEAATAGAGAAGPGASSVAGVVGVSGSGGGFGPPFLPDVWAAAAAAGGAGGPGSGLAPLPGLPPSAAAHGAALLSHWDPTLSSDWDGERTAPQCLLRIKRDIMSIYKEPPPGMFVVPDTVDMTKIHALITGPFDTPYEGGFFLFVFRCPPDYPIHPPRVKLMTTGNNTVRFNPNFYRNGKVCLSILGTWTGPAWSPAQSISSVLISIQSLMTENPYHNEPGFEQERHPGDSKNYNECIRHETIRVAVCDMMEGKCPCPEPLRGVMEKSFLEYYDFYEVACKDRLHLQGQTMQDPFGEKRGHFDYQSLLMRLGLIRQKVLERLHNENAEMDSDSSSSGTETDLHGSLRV
Sequence of UniProt Q7Z7E8 (Q7Z7E8 whole entry): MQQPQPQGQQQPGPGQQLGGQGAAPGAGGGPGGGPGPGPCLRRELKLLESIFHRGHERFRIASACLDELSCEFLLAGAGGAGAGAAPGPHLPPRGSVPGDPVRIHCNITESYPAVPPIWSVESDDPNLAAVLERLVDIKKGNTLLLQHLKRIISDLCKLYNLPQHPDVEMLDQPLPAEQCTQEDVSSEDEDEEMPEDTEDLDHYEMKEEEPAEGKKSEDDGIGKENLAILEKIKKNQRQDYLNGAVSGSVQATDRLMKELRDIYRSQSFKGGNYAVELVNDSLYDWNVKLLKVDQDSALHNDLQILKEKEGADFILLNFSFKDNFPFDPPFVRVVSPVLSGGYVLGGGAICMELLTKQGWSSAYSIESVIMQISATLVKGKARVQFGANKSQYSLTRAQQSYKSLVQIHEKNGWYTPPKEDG
Sequence of UniProt Q8TF42 (Q8TF42 whole entry): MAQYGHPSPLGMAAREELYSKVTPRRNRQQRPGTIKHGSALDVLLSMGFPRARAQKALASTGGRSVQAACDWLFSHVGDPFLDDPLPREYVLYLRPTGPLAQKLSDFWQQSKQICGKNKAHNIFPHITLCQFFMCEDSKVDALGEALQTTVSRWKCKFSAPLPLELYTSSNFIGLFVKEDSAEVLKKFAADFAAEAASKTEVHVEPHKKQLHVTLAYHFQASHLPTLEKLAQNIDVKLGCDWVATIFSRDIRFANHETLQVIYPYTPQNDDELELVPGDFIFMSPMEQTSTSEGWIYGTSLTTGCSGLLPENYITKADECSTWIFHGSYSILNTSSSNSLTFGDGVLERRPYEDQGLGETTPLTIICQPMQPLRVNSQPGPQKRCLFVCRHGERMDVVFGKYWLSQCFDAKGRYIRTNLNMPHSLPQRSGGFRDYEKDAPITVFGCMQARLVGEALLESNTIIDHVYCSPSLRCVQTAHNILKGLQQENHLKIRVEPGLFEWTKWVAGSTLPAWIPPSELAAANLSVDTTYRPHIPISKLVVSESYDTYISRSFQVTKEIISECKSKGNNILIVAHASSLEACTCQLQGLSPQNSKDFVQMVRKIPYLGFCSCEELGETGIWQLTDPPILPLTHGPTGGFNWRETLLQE
Sequence of UniProt P61081 (P61081 whole entry): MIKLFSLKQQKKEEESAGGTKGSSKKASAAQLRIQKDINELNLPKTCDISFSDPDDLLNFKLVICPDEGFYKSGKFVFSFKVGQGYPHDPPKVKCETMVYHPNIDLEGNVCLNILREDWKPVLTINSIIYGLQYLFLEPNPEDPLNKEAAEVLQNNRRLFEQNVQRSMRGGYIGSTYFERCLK

Target	thermal stability z-score [1, 3]	thermal stability z-score ([1]; arsenate co-treatment: none)	thermal stability z-score [2]
UBA6	-0.423	-0.209	0.0818
UBA52 (UniProt P62987)	1.26	1.15	-0.00358
UBAC1 (UniProt Q9BSL1)	0.447	-0.0576	0.576
UBAC2 (UniProt Q8NBM4)	-0.594	-0.778	-0.0559
UBAP1 (UniProt Q9NZ09)	-1.2	-0.177	-0.964
UBAP2 (UniProt Q5T6F2)	0.26	-0.00688	-0.47
UBAP2L (UniProt Q14157)	0.549	0.413	-0.116
UBASH3B (UniProt Q8TF42)	-0.0394	-0.103	-0.165
UBE2A (UniProt P49459)	0.343	0.172	-0.0388
UBE2B (UniProt P63146)	0.48	-0.354	-0.132
UBE2C (UniProt O00762)	0.263	-0.139	0.4
UBE2E1 (UniProt P51965)	0.456	0.441	11.8
UBE2E2 (UniProt Q96LR5)	-0.607	-0.124	4.13
UBE2E3 (UniProt Q969T4)	0.196	-0.0847	1.92
UBE2F (UniProt Q969M7)	-0.0267	-0.0251	-0.224
UBE2G1 (UniProt P62253)	0.288	0.286	0.0592
UBE2G2 (UniProt P60604)	0.327	0.813	0.643
UBE2H (UniProt P62256)	0.213	-0.108	0.295

Target	thermal stability z-score [1, 3]	thermal stability z-score ([1]; arsenate co-treatment: none)	thermal stability z-score [2]
UBE2I (UniProt P63279)	-0.334	0.315	0.137
UBE2J1 (UniProt Q9Y385)	-0.909	-0.103	0.198
UBE2J2 (UniProt Q8N2K1)	-0.286	-0.461	-0.0347
UBE2K (UniProt P61086)	0.398	-0.0311	-0.201
UBE2L3 (UniProt P68036)	0.00366	-0.189	-0.555
UBE2M (UniProt P61081)	0.533	0.463	-0.416
UBE2N (UniProt P61088)	-0.524	-0.293	-0.899
UBE2O (UniProt Q9C0C9)	0.0608	0.277	0.509
UBE2Q1 (UniProt Q7Z7E8)	-0.546	-0.425	-0.514
UBE2R2 (UniProt Q712K3)	0.8	0.536	-0.279
UBE2S (UniProt Q16763)	0.862	0.191	0.161
UBE2T (UniProt Q9NPD8)	0.245	0.447	-0.137
UBE2V2 (UniProt Q15819)	0.177	-0.304	-0.0935
UBE2Z (UniProt Q9H832)	-0.25	-0.264	-0.55
UBE3A (UniProt Q05086)	0.245	-0.149	0.3
UBE3B (UniProt Q7Z3V4)	-0.0453	-0.155	-0.212
UBE3C (UniProt Q15386)	-0.19	0.18	0.79
UBE4A (UniProt Q14139)	-0.217	-0.148	0.86
